Reference: patent US9376425B2, “Heterocyclic compounds as MDM2 inhibitors for the treatment of cancer” (AMGEN INC., priority 2011, dated 2016)

Target: T1, human MDM2 (GST-hMDM2 1-188), interaction with biotinylated-p53 (1-83) (Homo sapiens, UniProt Q00987)
T1 construct: Amino acid residues 1-188 of human MDM2 were expressed; made in house; host or cells: Escherichia coli
Assay: improved HTRF assay (HTRF2 assay), inhibition of HDM2-p53 interaction
Format: binding
Conditions: 0.2 nM GST-hMDM2, 0.5 nM biotinylated-p53, 100 mM KF
Method in brief: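 Time-resolved fluorescence (HTRF) read after >4 h equilibration with SA-XLent/anti-GST cryptate/KF detection reagents. Reaction: compound plus GST-hMDM2 for 20 min at room temperature, then E. coli-expressed biotinylated p53 residues 1-83 for 60 min, 2% DMSO final. Inhibition expressed versus nutlin-3.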

T1 sequence (Q00987 1-188): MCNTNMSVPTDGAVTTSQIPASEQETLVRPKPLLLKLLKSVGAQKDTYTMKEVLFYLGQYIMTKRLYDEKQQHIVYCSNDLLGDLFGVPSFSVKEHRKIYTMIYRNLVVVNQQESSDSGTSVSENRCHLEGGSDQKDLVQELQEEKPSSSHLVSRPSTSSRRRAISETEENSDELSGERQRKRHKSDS

IC50	Compound
< 1 nM	O=C(O)C[C@H]1O[C@H](c2cccc(Cl)c2)[C@@H](c2ccc(Cl)cc2)N([C@H](CS(=O)(=O)Nc2ccccc2F)C2CC2)C1=O (single isomer, unassigned) [Example 294, 2-((2R,5R,6R)-6-(3-Chlorophenyl)-5-(4-chlorophenyl)-4-((S)-1-cyclopropyl-2-(N-(2-fluorophenyl)sulfamoyl)ethyl)-3-oxomorpholin-2-yl)acetic acid or 2-((2S,5R,6R)-6-(3-chlorophenyl)-5-(4-chlorophenyl)-4-((S)-1-cyclopropyl-2-(N-(2-fluorophenyl)sulfamoyl)ethyl)-3-oxomorpholin-2-yl)acetic acid]
2 nM	O=C(O)C[C@H]1O[C@H](c2cccc(Cl)c2)[C@@H](c2ccc(Cl)cc2)N([C@H](CS(=O)(=O)Nc2ccccc2F)C2CC2)C1=O (single isomer, unassigned) [Example 295, 2-((2R,5R,6R)-6-(3-Chlorophenyl)-5-(4-chlorophenyl)-4-((S)-1-cyclopropyl-2-(N-(2-fluorophenyl)sulfamoyl)ethyl)-3-oxomorpholin-2-yl)acetic acid or 2-((2S,5R,6R)-6-(3-chlorophenyl)-5-(4-chlorophenyl)-4-((S)-1-cyclopropyl-2-(N-(2-fluorophenyl)sulfamoyl)ethyl)-3-oxomorpholin-2-yl)acetic acid]
< 1 nM	C[C@H]1CCCN1S(=O)(=O)C[C@H](C1CC1)N1C(=O)[C@@H](CC(=O)O)O[C@H](c2cccc(Cl)c2)[C@H]1c1ccc(Cl)cc1 (single isomer, unassigned) [Example 296, 2-((2R,5R,6R)-6-(3-Chlorophenyl)-5-(4-chlorophenyl)-4-((S)-1-cyclopropyl-2-(((S)-2-methylpyrrolidin-1-yl)sulfonyl)ethyl)-3-oxomorpholin-2-yl)acetic acid or 2-((2S,5R,6R)-6-(3-chlorophenyl)-5-(4-chlorophenyl)-4-((S)-1-cyclopropyl-2-(((S)-2-methylpyrrolidin-1-yl)sulfonyl)ethyl)-3-oxomorpholin-2-yl)acetic acid]
< 1 nM	C[C@H]1CCCN1S(=O)(=O)C[C@H](C1CC1)N1C(=O)[C@@H](CC(=O)O)O[C@H](c2cccc(Cl)c2)[C@H]1c1ccc(Cl)cc1 (single isomer, unassigned) [Example 297, 2-((2R,5R,6R)-6-(3-Chlorophenyl)-5-(4-chlorophenyl)-4-((S)-1-cyclopropyl-2-(((S)-2-methylpyrrolidin-1-yl)sulfonyl)ethyl)-3-oxomorpholin-2-yl)acetic acid or 2-((2S,5R,6R)-6-(3-chlorophenyl)-5-(4-chlorophenyl)-4-((S)-1-cyclopropyl-2-(((S)-2-methylpyrrolidin-1-yl)sulfonyl)ethyl)-3-oxomorpholin-2-yl)acetic acid]
26 nM	O=C(O)C[C@H]1O[C@H](c2cccc(Cl)c2)[C@@H](c2ccc(Cl)cc2)N([C@H](CS(=O)(=O)N2CCc3cc(F)ccc32)C2CC2)C1=O (single isomer, unassigned) [Example 298, 2-((2R,5R,6R)-6-(3-Chlorophenyl)-5-(4-chlorophenyl)-4-((S)-1-cyclopropyl-2-((5-fluoroindolin-1-yl)sulfonyl)ethyl)-3-oxomorpholin-2-yl)acetic acid or 2-((2S,5R,6R)-6-(3-chlorophenyl)-5-(4-chlorophenyl)-4-((S)-1-cyclopropyl-2-((5-fluoroindolin-1-yl)sulfonyl)ethyl)-3-oxomorpholin-2-yl)acetic acid]
11 nM	O=C(O)C[C@H]1O[C@H](c2cccc(Cl)c2)[C@@H](c2ccc(Cl)cc2)N([C@H](CS(=O)(=O)N2CCc3cc(F)ccc32)C2CC2)C1=O (single isomer, unassigned) [Example 299, 2-((2R,5R,6R)-6-(3-Chlorophenyl)-5-(4-chlorophenyl)-4-((S)-1-cyclopropyl-2-((5-fluoroindolin-1-yl)sulfonyl)ethyl)-3-oxomorpholin-2-yl)acetic acid or 2-((2S,5R,6R)-6-(3-chlorophenyl)-5-(4-chlorophenyl)-4-((S)-1-cyclopropyl-2-((5-fluoroindolin-1-yl)sulfonyl)ethyl)-3-oxomorpholin-2-yl)acetic acid]
< 1 nM	CN(C(C)(C)C)S(=O)(=O)C[C@H](C1CC1)N1C(=O)[C@@H](CC(=O)O)O[C@H](c2cccc(Cl)c2)[C@H]1c1ccc(Cl)cc1 (single isomer, unassigned) [Example 300, 2-((2R,5R,6R)-4-((S)-2-(N-(tert-Butyl)-N-methylsulfamoyl)-1-cyclopropylethyl)-6-(3-chlorophenyl)-5-(4-chlorophenyl)-3-oxomorpholin-2-yl)acetic acid or 2-((2S,5R,6R)-4-((S)-2-(N-(tert-butyl)-N-methylsulfamoyl)-1-cyclopropylethyl)-6-(3-chlorophenyl)-5-(4-chlorophenyl)-3-oxomorpholin-2-yl)acetic acid]
< 1 nM	CN(C(C)(C)C)S(=O)(=O)C[C@H](C1CC1)N1C(=O)[C@@H](CC(=O)O)O[C@H](c2cccc(Cl)c2)[C@H]1c1ccc(Cl)cc1 (single isomer, unassigned) [Example 301, 2-((2R,5R,6R)-4-((S)-2-(N-(tert-Butyl)-N-methylsulfamoyl)-1-cyclopropylethyl)-6-(3-chlorophenyl)-5-(4-chlorophenyl)-3-oxomorpholin-2-yl)acetic acid or 2-((2S,5R,6R)-4-((S)-2-(N-(tert-butyl)-N-methylsulfamoyl)-1-cyclopropylethyl)-6-(3-chlorophenyl)-5-(4-chlorophenyl)-3-oxomorpholin-2-yl)acetic acid]
< 1 nM	O=C(O)C[C@H]1O[C@H](c2cccc(Cl)c2)[C@@H](c2ccc(Cl)cc2)N([C@H](CS(=O)(=O)N2CCOCC2)C2CC2)C1=O (single isomer, unassigned) [Example 302, 2-((2R,5R,6R)-6-(3-Chlorophenyl)-5-(4-chlorophenyl)-4-((S)-1-cyclopropyl-2-(morpholinosulfonyl)ethyl)-3-oxomorpholin-2-yl)acetic acid or 2-((2S,5R,6R)-6-(3-chlorophenyl)-5-(4-chlorophenyl)-4-((S)-1-cyclopropyl-2-(morpholinosulfonyl)ethyl)-3-oxomorpholin-2-yl)acetic acid]
1 nM	O=C(O)C[C@H]1O[C@H](c2cccc(Cl)c2)[C@@H](c2ccc(Cl)cc2)N([C@H](CS(=O)(=O)N2CCOCC2)C2CC2)C1=O (single isomer, unassigned) [Example 303, 2-((2R,5R,6R)-6-(3-Chlorophenyl)-5-(4-chlorophenyl)-4-((S)-1-cyclopropyl-2-(morpholinosulfonyl)ethyl)-3-oxomorpholin-2-yl)acetic acid or 2-((2S,5R,6R)-6-(3-chlorophenyl)-5-(4-chlorophenyl)-4-((S)-1-cyclopropyl-2-(morpholinosulfonyl)ethyl)-3-oxomorpholin-2-yl)acetic acid]
< 1 nM	C[C@@H]1CCCN1S(=O)(=O)C[C@H](C1CC1)N1C(=O)[C@@H](CC(=O)O)O[C@H](c2cccc(Cl)c2)[C@H]1c1ccc(Cl)cc1 (single isomer, unassigned) [Example 304, 2-((2R,5R,6R)-6-(3-Chlorophenyl)-5-(4-chlorophenyl)-4-((S)-1-cyclopropyl-2-(((R)-2-methylpyrrolidin-1-yl)sulfonyl)ethyl)-3-oxomorpholin-2-yl)acetic acid or 2-((2S,5R,6R)-6-(3-chlorophenyl)-5-(4-chlorophenyl)-4-((S)-1-cyclopropyl-2-(((R)-2-methylpyrrolidin-1-yl)sulfonyl)ethyl)-3-oxomorpholin-2-yl)acetic acid]
< 1 nM	C[C@@H]1CCCN1S(=O)(=O)C[C@H](C1CC1)N1C(=O)[C@@H](CC(=O)O)O[C@H](c2cccc(Cl)c2)[C@H]1c1ccc(Cl)cc1 (single isomer, unassigned) [Example 305, 2-((2R,5R,6R)-6-(3-Chlorophenyl)-5-(4-chlorophenyl)-4-((S)-1-cyclopropyl-2-(((R)-2-methylpyrrolidin-1-yl)sulfonyl)ethyl)-3-oxomorpholin-2-yl)acetic acid or 2-((2S,5R,6R)-6-(3-chlorophenyl)-5-(4-chlorophenyl)-4-((S)-1-cyclopropyl-2-(((R)-2-methylpyrrolidin-1-yl)sulfonyl)ethyl)-3-oxomorpholin-2-yl)acetic acid]
< 1 nM	CC1(C)CCCN1S(=O)(=O)C[C@H](C1CC1)N1C(=O)[C@@H](CC(=O)O)O[C@H](c2cccc(Cl)c2)[C@H]1c1ccc(Cl)cc1 (single isomer, unassigned) [Example 306, 2-((2R,5R,6R)-6-(3-Chlorophenyl)-5-(4-chlorophenyl)-4-((S)-1-cyclopropyl-2-((2,2-dimethylpyrrolidin-1-yl)sulfonyl)ethyl)-3-oxomorpholin-2-yl)acetic acid or 2-((2R,5R,6R)-6-(3-chlorophenyl)-5-(4-chlorophenyl)-4-((S)-1-cyclopropyl-2-((2,2-dimethylpyrrolidin-1-yl)sulfonyl)ethyl)-3-oxomorpholin-2-yl)acetic acid]

Compound	IC50
CC(C)(C)NS(=O)(=O)C[C@H](C1CC1)N1C(=O)[C@@H](CC(=O)O)O[C@H](c2cccc(Cl)c2)[C@H]1c1ccc(Cl)cc1 (single isomer, unassigned) [Example 293, 2-((2R,5R,6R)-4-((S)-2-(N-(tert-Butyl)sulfamoyl)-1-cyclopropylethyl)-6-(3-chlorophenyl)-5-(4-chlorophenyl)-3-oxomorpholin-2-yl)acetic acid or 2-((2S,5R,6R)-4-((S)-2-(N-(tert-butyl)sulfamoyl)-1-cyclopropylethyl)-6-(3-chlorophenyl)-5-(4-chlorophenyl)-3-oxomorpholin-2-yl)acetic acid]	1 nM
